Assay results taken from patent US20060223826A1, “Indole derivatives as somatostatin agonists or antagonists” (Takeda Pharmaceutical Company Limited Intellectual Property …, priority 2002, published 2006).

How the values were obtained:
[1] = target: T1, human somatostatin receptor 2 (Homo sapiens, UniProt P30874); assay: Measurement of the binding inhibition rate of 125I-somatostatin; details: membrane fraction of SSTR2-HS5-9 CHO cells; 125I-somatostatin-14; 25° C., 60 minutes; compound concentration not given
T1 construct: expressed in transfected cells; host or cells: CHO cells, clone SSTR2-HS5-9 (membrane fraction)
T1 sequence (P30874 whole entry): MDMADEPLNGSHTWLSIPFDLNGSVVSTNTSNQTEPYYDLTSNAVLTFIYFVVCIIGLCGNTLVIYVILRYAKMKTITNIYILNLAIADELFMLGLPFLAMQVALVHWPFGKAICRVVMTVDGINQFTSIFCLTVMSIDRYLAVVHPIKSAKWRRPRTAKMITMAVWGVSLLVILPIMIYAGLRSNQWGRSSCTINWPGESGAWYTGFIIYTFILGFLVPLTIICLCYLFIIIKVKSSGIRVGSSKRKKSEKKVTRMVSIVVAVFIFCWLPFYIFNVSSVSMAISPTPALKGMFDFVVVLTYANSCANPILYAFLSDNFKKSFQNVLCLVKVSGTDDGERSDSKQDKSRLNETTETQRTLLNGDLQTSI
Experimental: Measurement of the Binding Inhibition Rate of ^125I-Somatostatin
The receptor binding inhibition rate (%) of the subject compound was calculated using human.somatostatin receptor 2 expressing CHO cells and SSTR2-HS5-9 described in WO02/16350.
First, SSTR2-HS5-9 (1×10^9) was floated on a phosphate buffered saline supplemented with 5 mM EDTA (PBS-EDTA) and centrifuged. To the cell pellets was added 10 ml of a homogenate buffer for cells (10 mM NaHCO3, 5 mM EDTA, pH 7.5), which was homogenated using a Polytron homogenizer. The supernatant obtained by centrifugation at 400×g for 15 minutes was further centrifuged at 100,000×g for 1 hour to give a precipitate of the membrane fraction. The precipitates ere suspended in 2 ml of a buffer solution for assay [25 mM Tris-HCl, 1 mM EDTA (Ethylenediaminetetraacetic Acid), 0.1% BSA (Bovine Serum Albumin), 0.25 mM PMSF (Phenylmethylsulfonyl Fluoride), 1 μg/ml pepstatin, 20 μg/ml leupeptin, 10 μg/ml Phosphoramidone, pH 7.5], which was centrifuged at 100,000×g for 1 hour. The membrane fraction recovered as precipitates was suspended again in 20 ml of the buffer solution for assay, which was placed in tubes and stored at −80° C. The suspension was thawed and used at every use.
The thus-obtained membrane fraction of SSTR2-HS5-9 cells was diluted with a buffer solution for assay [25 mM Tris-HCl, 1 mM EDTA (Ethylenediaminetetraacetic Acid), 0.1% BSA (Bovine Serum Albumin), 0.25 mM PMSF (Phenylmethylsulfonyl Fluoride), 1 μg/ml pepstatin, 20 μg/ml leupeptin, 10 μg/ml Phosphoramidone, pH 7.51 to adjust the concentration to 3 μg/ml. The diluate was placed in tubes each in quantity of 173 μl. To this were simultaneously added 2 μl of a solution of a subject compound in DMSO and 25 μl of a 200 pM radioisotope-labeled somatostatin-14 (^125I-somatostatin-14: Amersham). For measurement of the maximum binding, a reaction mixture added with 2 μl of DMSO and 25 μl of a 200 pM ^125I-somatostatin was prepared. For measurement of non-specific binding, a reaction mixture added with 2 μl of a 100 μm somatostatin solution in DMSO and 25 μl of a 200 pM ^125I-somatostatin-14 solution was prepared at the same time. The mixtures were allowed to react at 25° C. for 60 minutes. Then, the reaction mixture was filtered by aspiration using a Whatman glass filter (GF-B) treated with polyethylenimine. After filtration, the radioactivity of ^125I-somatostatin-14 remaining on the filter paper was measured by a γ-counter. The binding inhibition rate (%) of each subject compound was calculated by the following formula: (TB−SB)/(TB−NSB)×100 • SB: radioactivity when a subject compound was added • TB: maximum binding radioactivity • NSB: non-specific binding radioactivity

glucagon secretion = assay: Glucagon secretion inhibitory activity test (rat); format: in vivo; details: SD rats, male, fasted; 3 mg/kg body weight orally; insulin 2 U/kg s.c. 120 minutes later; plasma glucagon 30 minutes after insulin
Experimental: Glucagon Secretion Inhibitory Activity Test (Rat)
A 0.5% methylcellulose suspension containing the subject compound (3 mg/kg body weight) (compound administration group) or a 0.5% methylcellulose suspension (compound non-administration group) was orally administered to SD rats (male, 7 weeks of age) after fasting overnight, and 120 minutes later, insulin (2 U/kg body weight, Novo Nordisk) was subcutaneously administered. After 30 minutes from the insulin administration, the blood was drawn from the vein of eyegrounds of the rats using capillary, and blood plasma was separated by centrifugation. The concentration of glucagon in the obtained blood plasma was measured by radioimmunoassay using a Daiichi glucagon kit (Daiichi Isotope). As a non-treated group, the concentration of glucagon in the blood plasma of rat of the compound non-administration group free of insulin administration was measured in the same manner as above. […]

SMILES	binding inhibition rate (%) [1] [%]	glucagon secretion (% of control) (glucagon secretion)
C[C@@H](c1c[nH]c2ccccc12)[C@@H](NC(=O)N1CCC(c2ccccc2)CC1)C(=O)Nc1cccc(CN(C)C)c1 [Example 1, N-((1R,2S)-1-(((3-((dimethylamino)methyl)phenyl)amino)carbonyl)-2-(1H-indol-3-yl)propyl)-4-phenyl-1-piperidinecarboxamide]	98	9.5 % of control
CCOc1ccc(CN(C)C)cc1NC(=O)[C@H](NC(=O)N1CCN(c2ccc(F)cc2)CC1)[C@@H](C)c1c[nH]c2ccccc12 [Example 67, N-((1R,2S)-1-(((5-((dimethylamino)methyl)-2-ethoxyphenyl)amino)carbonyl)-2-(1H-indol-3-yl)propyl)-4-(4-fluorophenyl)-1-piperazinecarboxamide]	96	–
CCOc1ccc(CN(C)C)cc1NC(=O)[C@H](NC(=O)N1CCC(c2ccccc2)CC1)[C@@H](C)c1c[nH]c2ccccc12 [Example 54, N-((1R,2S)-1-(((5-((dimethylamino)methyl)-2-ethoxyphenyl)amino)carbonyl)-2-(1H-indol-3-yl)propyl)-4-phenyl-1-piperidinecarboxamide]	100	–
C[C@@H](c1c[nH]c2ccccc12)[C@@H](NC(=O)N1CCC(Oc2ccc(F)cc2)CC1)C(=O)Nc1cccc(CN(C)C)c1 [Example 2, N-( (1R,2S)-1-( ((3-((dimethylamino)methyl)phenyl)amino)carbonyl)-2-(1H-indol-3-yl)propyl)-4-(4-fluorophenoxy)-1-piperidinecarboxamide]	100	–
